According to patent US9771333B2, “Quinazoline derivatives as TAM family kinase inhibitors” (SIGNALCHEM LIFESCIENCES CORP., priority 2013, dated 2017):

Key:
Type in all cases: biochemical
human Mer = biological target: T1, human Mer (Homo sapiens, UniProt Q12866); assay: Kinase enzymatic activity assay (33P-radiolabeled phosphate transfer), Mer; conditions: recombinant human Mer (578-872), poly(4:1 glu:tyr) substrate, 30 minutes
T1 construct: GST (N); made in house; host or cells: Sf9 insect cells (baculovirus)
T1 sequence (Q12866 578-872): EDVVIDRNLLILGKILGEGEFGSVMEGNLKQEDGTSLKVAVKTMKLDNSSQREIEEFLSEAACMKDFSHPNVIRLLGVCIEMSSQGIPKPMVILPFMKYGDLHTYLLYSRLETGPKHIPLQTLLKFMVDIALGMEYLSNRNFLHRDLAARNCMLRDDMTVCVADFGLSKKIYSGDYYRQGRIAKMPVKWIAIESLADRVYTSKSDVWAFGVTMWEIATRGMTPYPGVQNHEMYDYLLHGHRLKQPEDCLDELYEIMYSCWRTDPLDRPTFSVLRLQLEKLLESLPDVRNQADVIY
Description: (§1) The identification of compounds of the invention as Tyro3, Axl or Mer inhibitors was readily accomplished using the recombinant human Tyro3, Axl and Mer proteins and employing the ^33P-radiolabeled phosphate transfer assay for which the procedure is known to someone skilled in the art or as described in Example 9.
(§2) Recombinant human Tyro3 (455-end, the gene accession number NM_006293), human Axl (473-end, the gene accession number NM_021913) and human Mer (578-872, the gene accession number NM_006343) were independently expressed by baculovirus in Sf9 insect cells using an N-terminal GST tag. The recombinant proteins were stored at −70° C. in a medium containing 50 mM Tris-HCl, pH 7.5, 150 mM NaCl, 10 mM glutathione, 0.1 mM EDTA, 0.25 mM DTT, 0.1 mM PMSF and 25% glycerol. The recombinant proteins were aliquoted into smaller quantities after centrifugation to avoid repeated handling and multiple freeze/thaw cycles for the most favorable performance.
(§3) Kinase Assay Buffer: This buffer solution consisted of the following components: 25 mM MOPS, pH 7.2, 12.5 mM β-glycerol-phosphate, 25 mM MgCl2, 5 mM EGTA, 2 mM EDTA and DTT 0.25 mM which was added prior to use.
(§4) Kinase Dilution Buffer: Kinase Assay Buffer was diluted at a 1:4 ratio (5× dilution) with distilled water.
(§5) [^33P]-ATP assay cocktail: In a designated radioactive working area, a 250 μM [^33P]-ATP assay cocktail was prepared by the addition of the following components: 150 μL of 10 mM ATP stock solution, 100 μL [^33P]-ATP (1 mci/100 μL), and 5.75 mL of kinase assay buffer. This solution was stored in 1 mL aliquots at −20° C.
(§6) ATP stock solution (10 mM): The ATP stock solution was prepared by dissolving 55 mg of ATP in 10 mL of kinase assay buffer. It was stored in 200 μL aliquots at −20° C.
(§7) Active Kinase Stock Solution: The active recombinant kinase protein (0.1 μg/μL) was diluted with Kinase Dilution Buffer and the activity was assayed using a serial dilution method. The specific activity is expressed in nmoL/min/mg.
(§8) Substrates: poly(4:1 glu:tyr) is the substrate used for each kinase Tyro3, Axl and Mer: The peptide substrate was dissolved in water to give the final concentration of 1 mg/mL.
(§9) Test compound solution: Test compound was dissolved in DMSO to obtain a 10 mM solution. The assay solution was prepared by adding 5 μL of this solution to […] of 10% DMSO/water to obtain the final concentration of 50 μM.
(§10) The enzymatic activity of all three kinases was determined as follows. Using a 96-well plate, the wells were divided into three categories: Blank wells, […] and Test wells. In Test wells, 5 μL of the test compound solution and 5 μL of the substrate solution were added. In Control wells, 5 μL of 10% DMSO/water and 5 μL of the substrate solution were added. In Blank wells, 10 μL of 10% DMSO/water was added. To each well was added 10 μL of Active Kinase Stock Solution to make up the volume in each well to 20 μL. All test samples, controls and blanks were run in duplicate. The reaction was initiated by the addition of 5 μL of [^33P]-ATP assay cocktail, bringing the final volume up to 25 μL in every well. The mixture was incubated at room temperature for 30 minutes. The reaction was terminated by transferring 10 μL of the reaction mixture into a Millipore MultiScreen filter plate (cat. number MSPHN6B50). The filter plate was washed in a 1% phosphoric acid solution with constant gentle shaking for 15 minutes and this step was repeated once. After the plate was dried in air, scintillation fluid was added to each well and the radioactivity in each well in CPM was counted by a Microbeta TriLux. The corrected CPM in each test well was determined by subtracting the average value of Blank well values. Percentage of inhibition of the kinase enzymatic activity by the test compound was determined using the following formula: […]
(§11) The IC50 values were determined in a similar way following a serial dilution of the test compound. […]

human Tyro3 = biological target: T2, human Tyro3 (Homo sapiens, UniProt Q06418); assay: Kinase enzymatic activity assay (33P-radiolabeled phosphate transfer), Tyro3; conditions: recombinant human Tyro3 (455-end), poly(4:1 glu:tyr) substrate, 30 minutes
T2 construct: GST (N); made in house; host or cells: Sf9 insect cells (baculovirus)
T2 sequence (Q06418 455-890 limits assumed): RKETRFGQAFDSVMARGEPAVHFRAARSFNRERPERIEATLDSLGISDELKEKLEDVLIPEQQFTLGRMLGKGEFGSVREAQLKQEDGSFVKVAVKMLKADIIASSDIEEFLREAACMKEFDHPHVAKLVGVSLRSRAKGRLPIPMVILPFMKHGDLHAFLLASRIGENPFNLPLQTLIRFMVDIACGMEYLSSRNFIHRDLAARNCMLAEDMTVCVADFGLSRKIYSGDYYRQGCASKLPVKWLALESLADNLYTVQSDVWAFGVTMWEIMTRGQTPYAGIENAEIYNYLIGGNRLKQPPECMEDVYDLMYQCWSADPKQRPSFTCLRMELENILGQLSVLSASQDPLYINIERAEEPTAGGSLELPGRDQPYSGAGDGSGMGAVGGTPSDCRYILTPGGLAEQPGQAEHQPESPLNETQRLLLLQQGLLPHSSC
Description: as §1, §2, §3, §4, §5, §6, §7, §8, §9, §10, §11

human Axl = biological target: T3, human Axl (Homo sapiens, UniProt P30530); assay: Kinase enzymatic activity assay (33P-radiolabeled phosphate transfer), Axl; conditions: recombinant human Axl (473-end), poly(4:1 glu:tyr) substrate, 30 minutes
T3 construct: GST (N); made in house; host or cells: Sf9 insect cells (baculovirus)
T3 sequence (P30530 473-894 limits assumed): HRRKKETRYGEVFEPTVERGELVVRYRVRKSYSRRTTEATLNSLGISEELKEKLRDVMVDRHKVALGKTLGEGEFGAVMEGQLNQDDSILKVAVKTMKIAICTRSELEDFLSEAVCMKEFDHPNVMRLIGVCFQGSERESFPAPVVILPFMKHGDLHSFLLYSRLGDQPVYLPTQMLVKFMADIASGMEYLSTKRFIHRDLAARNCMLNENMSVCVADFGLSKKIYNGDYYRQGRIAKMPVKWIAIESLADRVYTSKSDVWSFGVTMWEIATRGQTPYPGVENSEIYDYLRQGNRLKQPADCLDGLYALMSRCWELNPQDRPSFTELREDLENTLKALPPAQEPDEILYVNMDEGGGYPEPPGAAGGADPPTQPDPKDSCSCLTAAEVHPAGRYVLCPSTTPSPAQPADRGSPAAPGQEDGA
Description: as §1, §2, §3, §4, §5, §6, §7, §8, §9, §10, §11

| SMILES | IC50 (human Mer) | IC50 (human Tyro3) | IC50 (human Axl) |
| --- | --- | --- | --- |
| FC(F)(F)c1csc(Nc2ncnc3cc(OCCCN4CCOCC4)cc(OC4CCOCC4)c23)n1 [Example 2.18, N-(7-(3-morpholinopropoxy)-5-((tetrahydro-2H-pyran-4-yl)oxy)quinazolin-4-yl)-4-(trifluoromethyl)thiazol-2-amine] | 1 to 10 µM | > 10 µM | 0.5 to 1 µM |
| c1nc(Nc2nncs2)c2c(OC3CCOCC3)cc(OCCCN3CCOCC3)cc2n1 [Example 2.19, N-(7-(3-morpholinopropoxy)-5-((tetrahydro-2H-pyran-4-yl)oxy)quinazolin-4-yl)-1,3,4-thiadiazol-2-amine] | 1 to 10 µM | 1 to 10 µM | < 0.5 µM |
| Cc1nnc(Nc2ncnc3cc(OCCCN4CCOCC4)cc(OC4CCOCC4)c23)s1 [Example 2.20, 5-methyl-N-(7-(3-morpholinopropoxy)-5-((tetrahydro-2H-pyran-4-yl)oxy)quinazolin-4-yl)-1,3,4-thiadiazol-2-amine] | 1 to 10 µM | > 10 µM | 1 to 10 µM |
| c1csc(Nc2ncnc3cc(OCCCN4CCOCC4)cc(OC4CCOCC4)c23)n1 [Example 2.21, N-(7-(3-morpholinopropoxy)-5-((tetrahydro-2H-pyran-4-yl)oxy)quinazolin-4-yl)thiazol-2-amine] | < 0.5 µM | 1 to 10 µM | < 0.5 µM |
| FC(F)(F)c1nnc(Nc2ncnc3cc(OCCCN4CCOCC4)cc(OC4CCOCC4)c23)s1 [Example 2.22, N-(7-(3-morpholinopropoxy)-5-((tetrahydro-2H-pyran-4-yl)oxy)quinazolin-4-yl)-5-(trifluoromethyl)-1,3,4-thiadiazol-2-amine] | > 10 µM | > 10 µM | 1 to 10 µM |
| CN1CCC(COc2cc(OC3CCOCC3)c3c(Nc4nc(C(F)(F)F)cs4)ncnc3c2)CC1 [Example 2.23, N-(7-((1-methylpiperidin-4-yl)methoxy)-5-((tetrahydro-2H-pyran-4-yl)oxy)quinazolin-4-yl)-4-(trifluoromethyl)thiazol-2-amine] | > 10 µM | > 10 µM | < 0.5 µM |
| COc1cc(N2CCOCC2)cc2ncnc(Nc3nc(C(F)(F)F)cs3)c12 [Example 2.24, N-(5-methoxy-7-morpholinoquinazolin-4-yl)-4-(trifluoromethyl)thiazol-2-amine] | > 10 µM | > 10 µM | 1 to 10 µM |
| COc1cc(N2CCN(C)CC2)cc2ncnc(Nc3nc(C(F)(F)F)cs3)c12 [Example 2.25, N-(5-methoxy-7-(4-methylpiperazin-1-yl)quinazolin-4-yl)-4-(trifluoromethyl)thiazol-2-amine] | > 10 µM | > 10 µM | 0.5 to 1 µM |
| COC(=O)c1cccc(Oc2ncnc3cc(OCCCN4CCOCC4)cc(OC)c23)c1 [Example 2.26, methyl 3-((5-methoxy-7-(3-morpholinopropoxy)quinazolin-4-yl)oxy)benzoate] | > 10 µM | 1 to 10 µM | > 10 µM |
| COC(=O)Cc1cccc(Oc2ncnc3cc(OCCCN4CCOCC4)cc(OC)c23)c1 [Example 2.27, methyl 2-(3-((5-methoxy-7-(3-morpholinopropoxy)quinazolin-4-yl)oxy)phenyl)acetate] | 1 to 10 µM | 1 to 10 µM | > 10 µM |
| COc1cc(OCCCN2CCOCC2)cc2ncnc(Oc3cccc(C(=O)NCc4ccccc4)c3)c12 [Example 2.28, N-benzyl-3-((5-methoxy-7-(3-morpholinopropoxy)quinazolin-4-yl)oxy)benzamide] | > 10 µM | > 10 µM | > 10 µM |
| COc1cc(OCCCN2CCOCC2)cc2ncnc(Oc3cccc(CC(=O)NCc4ccccc4)c3)c12 [Example 2.29, N-benzyl-2-(3-((5-methoxy-7-(3-morpholinopropoxy)quinazolin-4-yl)oxy)phenyl)acetamide] | > 10 µM | 1 to 10 µM | > 10 µM |
| COC(=O)c1cccc(Oc2ncnc3cc(OCCN4CCN(C)CC4)cc(OC4CCOCC4)c23)c1 [Example 2.30, methyl 3-((7-(2-(4-methylpiperazin-1-yl)ethoxy)-5-((tetrahydro-2H-pyran-4-yl)oxy)quinazolin-4-yl)oxy)benzoate] | > 10 µM | 1 to 10 µM | 1 to 10 µM |
| COC(=O)Cc1cccc(Oc2ncnc3cc(OCCN4CCN(C)CC4)cc(OC4CCOCC4)c23)c1 [Example 2.31, methyl 2-(3-((7-(2-(4-methylpiperazin-1-yl)ethoxy)-5-((tetrahydro-2H-pyran-4-yl)oxy)quinazolin-4-yl)oxy)phenyl)acetate] | > 10 µM | 0.5 to 1 µM | 1 to 10 µM |
| CN1CCN(CCOc2cc(OC3CCOCC3)c3c(Oc4cccc(C(=O)NCc5ccccc5)c4)ncnc3c2)CC1 [Example 2.32, N-benzyl-3-((7-(2-(4-methylpiperazin-1-yl)ethoxy)-5-((tetrahydro-2H-pyran-4-yl)oxy)quinazolin-4-yl)oxy)benzamide] | > 10 µM | > 10 µM | 1 to 10 µM |
| CN1CCN(CCOc2cc(OC3CCOCC3)c3c(Oc4cccc(CC(=O)NCc5ccccc5)c4)ncnc3c2)CC1 [Example 2.33, N-benzyl-2-(3-((7-(2-(4-methylpiperazin-1-yl)ethoxy)-5-((tetrahydro-2H-pyran-4-yl)oxy)quinazolin-4-yl)oxy)phenyl)acetamide] | > 10 µM | 0.5 to 1 µM | 1 to 10 µM |
